The record followed here is US9006440B2, “Furopyridine derivatives” (Merck Patent GmbH, priority 2010, dated 2015).

The subject of test [1] is BLNK phosphorylation in Ramos cells. Description: BCR crosslinking-induced BLNK phosphorylation (BLNK cell assay). Format: cell-based. The note with it: Homo sapiens. As to the method:
1. BCR Crosslinking-Induced BLNK Phosphorylation
Ramos cells incubated overnight in IMDM medium containing 5% FCS were resuspended in IMDM medium without serum (3.3×10^6 cells/ml). 90 μl of cell suspension (300′000 cells) were incubated with 10 μl of SYK inhibitors (in 3% DMSO) for 20 minutes at 37° C., in 96 well plates. After preincubation with inhibitors, cells were activated with 10 μg/ml of goat antihuman anti-IgM for 10 minutes at 37° C. After stimulation, cells were fixed by addition of 80 μl of 4% paraformaldehyde followed by a 10 minutes incubation at RT and […] in 0.1% Triton X-100 in PBS. BLNK phosphorylation was detected by flow cytometry after staining of the cells with anti-BLNK-pY84-PE antibodies from BD pharmingen, for 45 minutes at RT.
BLNK phosphorylation in CD19^+ peripheral blood mononuclear cells (PBMC) isolated from buffy coats of healthy volunteers was performed using the same protocol and staining the cells with a mixture of anti-BLNK-pY84-PE, anti CD-19 PerCp and Anti-IgM APC antibodies from BD Pharmingen.

The next test addresses T1, Syk (Homo sapiens, UniProt P43405).
T1 construct: purchased BPS Bioscience, CA, USA
The test can be described thus: Syk enzyme assay (SYK flash plate assay / Caliper mobility shift). Format: biochemical. Summed up:
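Flashplate format: 2.5 nM SYK, 400 nM biotinylated peptide, 10 μM ATP with 33P-ATP, pH 7.5, 1 h at 30 °C; radioactivity read, staurosporine background. Caliper format: 90 min at 25 °C, mobility-shift read of substrate-to-product conversion; IC50 from dose-response curve.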

For the next test, the target named is T2, KDR (Homo sapiens, UniProt P35968).
T2 construct: purchased BPS Bioscience, CA, USA
T2 sequence (P35968 20-1356): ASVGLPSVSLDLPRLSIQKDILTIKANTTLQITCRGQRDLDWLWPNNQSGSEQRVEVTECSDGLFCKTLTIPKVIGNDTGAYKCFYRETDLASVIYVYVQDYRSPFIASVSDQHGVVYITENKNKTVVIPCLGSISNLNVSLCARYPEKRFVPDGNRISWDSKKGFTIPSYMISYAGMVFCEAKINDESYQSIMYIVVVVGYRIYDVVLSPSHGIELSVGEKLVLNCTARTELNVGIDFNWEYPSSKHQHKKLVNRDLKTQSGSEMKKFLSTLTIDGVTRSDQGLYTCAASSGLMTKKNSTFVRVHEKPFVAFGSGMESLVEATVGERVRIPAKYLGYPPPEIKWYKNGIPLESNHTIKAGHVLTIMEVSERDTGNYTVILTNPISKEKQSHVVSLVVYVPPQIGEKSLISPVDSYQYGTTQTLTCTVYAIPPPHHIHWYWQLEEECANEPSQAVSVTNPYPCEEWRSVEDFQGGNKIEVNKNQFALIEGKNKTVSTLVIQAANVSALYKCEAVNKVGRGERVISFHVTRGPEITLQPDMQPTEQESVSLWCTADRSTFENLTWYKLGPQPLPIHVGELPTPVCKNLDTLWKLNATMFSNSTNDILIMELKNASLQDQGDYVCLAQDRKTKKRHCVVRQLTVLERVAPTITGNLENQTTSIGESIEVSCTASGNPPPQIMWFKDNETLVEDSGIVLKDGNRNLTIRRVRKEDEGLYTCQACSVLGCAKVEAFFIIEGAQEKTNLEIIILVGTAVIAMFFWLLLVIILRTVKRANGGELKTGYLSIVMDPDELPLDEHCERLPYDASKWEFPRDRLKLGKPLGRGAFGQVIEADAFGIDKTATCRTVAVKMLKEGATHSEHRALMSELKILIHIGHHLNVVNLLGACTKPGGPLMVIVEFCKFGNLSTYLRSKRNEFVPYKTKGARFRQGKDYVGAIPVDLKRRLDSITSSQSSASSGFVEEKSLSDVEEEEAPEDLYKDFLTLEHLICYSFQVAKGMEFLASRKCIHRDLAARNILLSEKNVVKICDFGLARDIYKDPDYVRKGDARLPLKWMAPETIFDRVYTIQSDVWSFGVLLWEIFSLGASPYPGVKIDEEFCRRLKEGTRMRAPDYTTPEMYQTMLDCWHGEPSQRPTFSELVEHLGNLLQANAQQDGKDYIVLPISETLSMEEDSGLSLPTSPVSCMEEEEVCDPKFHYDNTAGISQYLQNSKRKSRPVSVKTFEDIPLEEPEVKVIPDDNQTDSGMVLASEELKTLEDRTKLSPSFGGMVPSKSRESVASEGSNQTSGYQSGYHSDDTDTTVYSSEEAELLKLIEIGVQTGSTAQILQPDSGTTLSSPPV
The test can be described thus: KDR enzymatic assay (Caliper LifeSciences technology). Format: biochemical. Summed up: (§1)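 Off-chip mobility-shift assay measuring conversion of a fluorescently labelled peptide substrate, in 100 mM HEPES pH 7.5, 1 mM DTT, 1 mM MgCl2 and 0.015% Brij-35. Reactions ran 90 min at 25 C and were stopped with EDTA. IC50s were derived from percent-conversion dose-response curves.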

A further test deals with T3, SRC (Homo sapiens, UniProt P12931).
T3 construct: purchased Carna Bioscience, Kobe, Japan
T3 sequence (P12931 whole entry): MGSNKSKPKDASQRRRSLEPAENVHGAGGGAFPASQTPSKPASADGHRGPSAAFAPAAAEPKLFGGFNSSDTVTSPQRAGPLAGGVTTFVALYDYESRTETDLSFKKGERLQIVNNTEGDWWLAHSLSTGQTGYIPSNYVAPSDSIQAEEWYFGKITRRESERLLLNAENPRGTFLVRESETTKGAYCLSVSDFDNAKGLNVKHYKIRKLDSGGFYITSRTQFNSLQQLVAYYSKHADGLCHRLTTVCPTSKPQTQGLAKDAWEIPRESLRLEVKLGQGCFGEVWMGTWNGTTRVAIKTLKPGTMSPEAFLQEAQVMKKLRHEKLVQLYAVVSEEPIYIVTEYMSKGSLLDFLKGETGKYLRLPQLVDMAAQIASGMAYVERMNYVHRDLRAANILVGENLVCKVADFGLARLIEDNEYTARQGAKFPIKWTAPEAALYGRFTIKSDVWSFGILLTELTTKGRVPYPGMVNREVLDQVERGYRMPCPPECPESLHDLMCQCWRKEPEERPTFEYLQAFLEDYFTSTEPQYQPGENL
The test can be described thus: Src enzymatic assay (Caliper LifeSciences technology). Format: biochemical. Summed up: as §1

A further test concerns the target T4, Zap70 (Homo sapiens, UniProt P43403).
T4 construct: purchased BPS Bioscience, CA, USA
T4 sequence (P43403 1-619): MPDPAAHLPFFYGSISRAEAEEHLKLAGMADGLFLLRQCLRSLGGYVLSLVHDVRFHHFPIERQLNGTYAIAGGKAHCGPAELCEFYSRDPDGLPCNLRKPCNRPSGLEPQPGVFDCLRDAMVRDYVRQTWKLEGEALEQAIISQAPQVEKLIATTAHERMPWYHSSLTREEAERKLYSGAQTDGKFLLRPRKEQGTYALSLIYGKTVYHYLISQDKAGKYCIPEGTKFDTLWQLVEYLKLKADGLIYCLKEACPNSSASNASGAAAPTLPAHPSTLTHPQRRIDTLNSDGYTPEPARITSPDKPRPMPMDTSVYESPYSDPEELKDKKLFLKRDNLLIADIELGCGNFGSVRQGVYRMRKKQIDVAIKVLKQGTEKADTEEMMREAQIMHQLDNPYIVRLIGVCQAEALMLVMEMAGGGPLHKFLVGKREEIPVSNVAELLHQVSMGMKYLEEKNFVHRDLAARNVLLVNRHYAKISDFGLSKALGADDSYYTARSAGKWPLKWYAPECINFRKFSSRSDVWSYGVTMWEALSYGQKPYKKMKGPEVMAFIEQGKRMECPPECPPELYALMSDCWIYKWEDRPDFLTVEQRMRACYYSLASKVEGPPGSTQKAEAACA
The test can be described thus: ZAP-70 enzymatic assay (Caliper LifeSciences technology). It counts as biochemical. As for the experimental part:
(§2) The assays described here are performed on the Caliper Life Sciences LC3000 system This technology provides data on enzyme activity via measurement of the relative amounts of phosphorylated or unphosphorylated fluorescently labelled substrate peptide at the end of an enzymatic reaction. These different states of peptide are resolved by applying a potential difference across the sample. The presence of the charged phosphate group on the product (as opposed to the substrate) causes a different peptide mobility between the two peptides. This is visualized by excitation of the fluorescent label on the substrate and product peptides and represented as peaks within the analysis software.
(§3) In order to measure inhibitor activity of kinase inhibitors on this technology, a TTP Mosquito liquid handling instrument is used to place 0.25 ul of the appropriate concentration of inhibitor in 100% DMSO (for a dose response curve calculation) into each well of a 384-well plate. To this reaction components are added to a final volume of 25 ul. The table below indicates the sequences and concentrations for the assays described in this report. Standard components are 1 mM DTT (Sigma, D0632), 1 mM MgCl2 (Sigma, M1028), 100 mM HEPES pH 7.5 (Calbiochem, 391338), 0.015% Brij-35 (Sigma, B4184).
(§4) The reaction is incubated for 90 min at 25 C, and then stopped by the addition of 70 ul of Stop buffer (100 mM HEPES pH 7.5, 0.015% Brij-35, 10 mM EDTA (Sigma, E7889)).
(§5) The plate is read on a Caliper LC 3000 in an Off-Chip mobility shift assay format, on a 12-sipper chip. Unphosphorylated substrate and phosphorylated product peptide resolve as separate peaks allowing direct measurement of percentage of conversion of substrate to product. The percent conversion can be plotted against concentration of inhibitor to produce a sigmoidal dose response curve, from which an IC50 can be calculated using GeneData Condoseo or a similar product.

A further test concerns the target T5, BTK (Homo sapiens, UniProt Q06187).
T5 construct: purchased Carna Bioscience, Kobe, Japan
Description: BTK enzymatic assay (Caliper LifeSciences technology). It counts as biochemical. As for the experimental part: as §2, §3, §4, §5

A value given as a limit tells only on which side of the number the result lay.

T5 sequence (Q06187 whole entry): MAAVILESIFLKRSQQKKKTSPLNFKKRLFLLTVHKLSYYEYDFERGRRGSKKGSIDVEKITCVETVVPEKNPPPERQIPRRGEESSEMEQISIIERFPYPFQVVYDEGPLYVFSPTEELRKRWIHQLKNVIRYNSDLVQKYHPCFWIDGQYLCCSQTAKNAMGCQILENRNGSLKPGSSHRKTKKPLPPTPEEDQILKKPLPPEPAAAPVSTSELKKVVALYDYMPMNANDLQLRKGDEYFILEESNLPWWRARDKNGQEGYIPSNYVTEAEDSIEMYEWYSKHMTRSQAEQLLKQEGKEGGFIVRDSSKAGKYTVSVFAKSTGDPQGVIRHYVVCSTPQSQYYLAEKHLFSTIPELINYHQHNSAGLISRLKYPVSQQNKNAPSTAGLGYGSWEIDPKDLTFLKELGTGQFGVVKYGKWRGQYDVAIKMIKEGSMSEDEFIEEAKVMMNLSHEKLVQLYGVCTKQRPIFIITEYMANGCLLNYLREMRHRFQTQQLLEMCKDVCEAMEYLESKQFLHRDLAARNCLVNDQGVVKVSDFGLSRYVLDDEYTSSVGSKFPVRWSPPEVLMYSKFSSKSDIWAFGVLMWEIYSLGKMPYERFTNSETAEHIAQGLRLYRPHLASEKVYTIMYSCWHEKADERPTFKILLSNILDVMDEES

As to `COc1cc(-c2cc3nccc(-c4ccccc4)c3o2)cc(OC)c1OC` [Compound A5, 7-Phenyl-2-(3,4,5-trimethoxy-phenyl)-furo[3,2-b]pyridine], the IC50 (as a rule, the concentration at which inhibition is half-maximal) in test [1] was 3000 to 50000 nM; at Syk, below 300 nM.
As for `COc1cc(-c2cc3nccc(-c4c[nH]c5ccccc45)c3o2)cc(OC)c1OC` [Compound A25, 7-(1H-Indol-3-yl)-2-(3,4,5-trimethoxy-phenyl)-furo[3,2-b]pyridine], the IC50 is 300 to 3000 nM on Syk, 3 to 50 µM on KDR, 3 to 50 µM against SRC and 3 to 50 µM against Zap70.
For `COc1cc(-c2cc3nccc(-c4ccc(C(=O)O)cc4)c3o2)cc(OC)c1OC` [Compound A42, 4-[2-(3,4,5-Trimethoxy-phenyl)-furo[3,2-b]pyridin-7-yl]-benzoic acid], the IC50 at Syk is below 300 nM; on KDR it was 3 to 50 µM; against SRC, 3 to 50 µM; against Zap70, 0.3 to 3 µM.
As for `COc1cc(-c2cc3nccc(-c4cccc(C(=O)NC5CCCCC5N)c4)c3o2)cc(OC)c1OC` (centres unmarked) [Compound A45, N-(2-Amino-cyclohexyl)-3-[2-(3,4,5-trimethoxy-phenyl)-furo[3,2-b]pyridin-7-yl]-benzamide], the IC50 on Syk was below 300 nM; against KDR, 3 to 50 µM; against SRC, 0.3 to 3 µM; against Zap70 it was 3 to 50 µM.
As for `COc1cc(-c2cc3nccc(-c4cccc(N)c4)c3o2)cc(OC)c1OC` [Compound A55, 3-[2-(3,4,5-Trimethoxy-phenyl)-furo[3,2-b]pyridin-7-yl]-phenylamine], the figures for the IC50 on Syk, against KDR and against Zap70 were below 300 nM, 3 to 50 µM and 0.3 to 3 µM, respectively.
As to `COc1cc(-c2cc3nccc(-c4ccc(N)cc4)c3o2)cc(OC)c1OC` [Compound A56, 4-[2-(3,4,5-Trimethoxy-phenyl)-furo[3,2-b]pyridin-7-yl]-phenylamine], the IC50 at Syk is below 300 nM; against KDR it was 0.3 to 3 µM; against Zap70, 0.3 to 3 µM.
For `COc1cc(-c2cc3nccc(Nc4ccc5cn[nH]c5c4)c3o2)cc(OC)c1OC` [Compound B15], the IC50 was 300 to 3000 nM at Syk; 3 to 50 µM at BTK; 0.3 to 3 µM against KDR; 3 to 50 µM against SRC; 3 to 50 µM against Zap70.
On to `COc1cc(-c2cc3nccc(Nc4ccc5[nH]ccc5c4C)c3o2)cc(OC)c1OC` [Compound B22], for which the IC50 in test [1] is 3000 to 50000 nM; on Syk, below 300 nM; against BTK, 0.3 to 3 µM; on KDR, below 0.3 µM; against SRC, below 0.3 µM.
`Cc1c(Nc2ccnc3cc(-c4ccc(CO)cc4)oc23)ccc2[nH]ccc12` [Compound B61, {4-[7-(4-Methyl-1H-indol-5-ylamino)-furo[3,2-b]pyridin-2-yl]-phenyl}-methanol]: the IC50 on Syk was 300 to 3000 nM; against KDR, below 0.3 µM; at Zap70, below 0.3 µM.
As to `COc1cc(-c2cc3nccc(-c4ccc5[nH]ccc5c4)c3o2)cc(OC)c1OC` [Compound B74, 7-(1H-Indol-5-yl)-2-(3,4,5-trimethoxyphenyl)furo[3,2-b]pyridine], the IC50 was 300 to 3000 nM in test [1], 300 to 3000 nM at Syk and 3 to 50 µM against BTK.
As to `COc1cc(-c2cc3nccc(-c4c(OC)cccc4OC)c3o2)cc(OC)c1OC` [Compound C2], the IC50 on Syk was below 300 nM; against KDR it was 3 to 50 µM; at SRC, 0.3 to 3 µM; at Zap70, 3 to 50 µM.
Regarding `COc1cc(-c2cc3nccc(-c4cccc(C(=O)NCc5n[nH]c(=O)[nH]5)c4)c3o2)cc(OC)c1OC` [Compound C12], the figures for the IC50 at Syk, on KDR and against Zap70 were below 300 nM, 0.3 to 3 µM and 3 to 50 µM, respectively.
In the case of `COc1cc(-c2cc3nccc(-c4cnn(C)c4)c3o2)ccc1O` [Compound C26], the IC50 at Syk was below 300 nM; against KDR, 0.3 to 3 µM; on SRC, 0.3 to 3 µM; on Zap70 it was 0.3 to 3 µM.
Consider `COc1cc(-c2cc3nccc(-c4ccc(CO)nc4)c3o2)cc(OC)c1OC` [Compound C27], for which the IC50 on Syk is below 300 nM; against KDR it was 3 to 50 µM; against Zap70 it was 3 to 50 µM.
As to `Cn1cc(-c2ccnc3cc(-c4cccc(N)c4)oc23)cn1` [Compound C29], the IC50 on Syk is below 300 nM; against KDR, 0.3 to 3 µM; on SRC, 3 to 50 µM; at Zap70 it was 3 to 50 µM.
On to `COc1ccc(-c2cc3nccc(-c4ccccc4)c3o2)cc1NC(=O)[C@@H]1CCCN1` [Compound C30], for which the IC50 at Syk was in the range of 300 to 3000 nM; against KDR, 0.3 to 3 µM; against Zap70, 3 to 50 µM.
Taken in the same sequence, the figures for `COc1cc(NC(=O)[C@@H]2C[C@@H](O)CN2)cc(-c2cc3nccc(-c4ccccc4)c3o2)c1` [Compound C46] were below 300 nM, 3 to 50 µM and 3 to 50 µM.
With `COc1cc(-c2cc3nccc(-c4ccc5[nH]cnc5c4)c3o2)cc(OC)c1OC` [Compound C60], the IC50 at Syk is below 300 nM; at KDR it was 0.3 to 3 µM; at SRC, 3 to 50 µM; against Zap70 it was 3 to 50 µM.
In the case of `COCC(O)Cn1cc(-c2ccnc3cc(-c4cc(OC)c(OC)c(OC)c4)oc23)cn1` (centres unmarked) [Compound C66], the IC50 fell in the range of 300 to 3000 nM at Syk, 0.3 to 3 µM against KDR and 3 to 50 µM on Zap70.
For the compound `COc1cc(-c2cc3nccc(-c4ccc5[nH]nnc5c4)c3o2)cc(OC)c1OC` [Compound C70], the IC50 is below 300 nM at Syk, 0.3 to 3 µM against KDR and 0.3 to 3 µM at Zap70.
For `COc1cc(-c2cc3nccc(-c4cn[nH]c4)c3o2)cc(OC)c1OC` [Compound C72], the IC50 is below 300 nM on Syk; 3 to 50 µM on BTK; below 0.3 µM at KDR; 0.3 to 3 µM against SRC; 3 to 50 µM against Zap70.
Consider `COc1cc(-c2cc3nccc(-c4cc[nH]n4)c3o2)cc(OC)c1OC` [Compound C73], for which the IC50 on Syk is below 300 nM; against BTK, 3 to 50 µM; at KDR, below 0.3 µM; at SRC, 0.3 to 3 µM; at Zap70, 0.3 to 3 µM.
In the case of `COc1cc(-c2cc3nccc(-c4ccnc(NCC5CCCNC5)c4)c3o2)cc(OC)c1OC` (centres unmarked) [Compound C185], the values for the IC50 on Syk, on SRC and against Zap70 were below 300 nM, below 0.3 µM and 3 to 50 µM, respectively.
